biological target: Recombinant human HSD17B13 (Homo sapiens (Human), UniProt Q7Z5P4); assay: HSD17B13 rapid-fire mass spectrometry assay (RF/MS assay); format: biochemical; settings: inhibition of HSD17B13; LTB4 10 μM, NAD+ 0.5 mM, RT 3 h; IC50 ranges A-E
Summary of the method: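 Sf9-expressed human HSD17B13 (80 nM) with 10 μM LTB4 and 0.5 mM NAD+, incubated with compound (0–100 μM) for 3 h at RT in Tris pH 7.5/BSA/Tween-20. After formic acid quench, LTB4 conversion to 12-oxo-LTB4 measured by RapidFire MS/MS. IC50 from normalised residual activity, duplicates.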

Recombinant human HSD17B13, sequence (Q7Z5P4 20-300): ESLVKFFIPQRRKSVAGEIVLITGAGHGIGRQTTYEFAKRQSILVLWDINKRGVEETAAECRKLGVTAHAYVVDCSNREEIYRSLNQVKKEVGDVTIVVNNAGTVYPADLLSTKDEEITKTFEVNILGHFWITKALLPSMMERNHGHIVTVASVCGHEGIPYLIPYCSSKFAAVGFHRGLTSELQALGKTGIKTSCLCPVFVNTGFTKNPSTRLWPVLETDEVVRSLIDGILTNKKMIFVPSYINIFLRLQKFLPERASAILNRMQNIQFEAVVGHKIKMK

| IC50 | SMILES |
| --- | --- |
| 100 to 500 nM | COc1cc(C(=O)O)c(F)cc1NS(=O)(=O)c1cnn(-c2ccc([C@H]3CC[C@@H](C(F)(F)F)CC3)cc2)c1 [Example 685, 2-fluoro-5-methoxy-4-((1-(4-((1s,4s)-4-(trifluoromethyl)cyclohexyl)phenyl)-1H-pyrazole)-4-sulfonamido)benzoic acid] |
| 100 to 500 nM | COc1cc(C(=O)O)c(F)cc1NS(=O)(=O)c1cnn(-c2ccc([C@H]3CC[C@H](C(F)(F)F)CC3)cc2)c1 [Example 686, 2-fluoro-5-methoxy-4-((1-(4-((1r,4r)-4-(trifluoromethyl)cyclohexyl)phenyl)-1H-pyrazole)-4-sulfonamido)benzoic acid] |
| 100 to 500 nM | COc1cc(C(=O)O)c(F)cc1NS(=O)(=O)c1ccn(-c2ccc([C@H]3CC[C@@H](C(F)(F)F)CC3)cc2)n1 [Example 691] |
| 100 to 500 nM | COc1cc(C(=O)O)c(F)cc1NS(=O)(=O)c1ccn(-c2ccc([C@H]3CC[C@H](C(F)(F)F)CC3)cc2)n1 [Example 692] |
| < 100 nM | CCCCC[C@H]1CC[C@H](c2ccc(-c3nc(S(=O)(=O)Nc4cc(F)c(C(=O)O)cc4OC)cs3)cc2)CC1 [Example 706] |
| < 100 nM | COc1cc(C(=O)O)ccc1NS(=O)(=O)c1cnc(-c2ccc([C@H]3CC[C@@H](C(F)(F)F)CC3)cc2)s1 [Example 712] |
| < 100 nM | COc1cc(C(=O)O)ccc1NS(=O)(=O)c1cnc(-c2ccc([C@H]3CC[C@H](C(F)(F)F)CC3)cc2)s1 [Example 713] |
| < 100 nM | CCC[C@H]1CC[C@H](c2ccc(-c3nc(S(=O)(=O)Nc4cc(F)c(C(=O)O)cc4OC)cs3)cc2)CC1 [Example 715] |
| < 100 nM | COc1cc(C(=O)O)c(F)cc1NS(=O)(=O)c1cnc(-c2ccc(C3=CCC(C(C)(C)C)CC3)cc2)s1 (stereo not drawn) [Example 717] |
| < 100 nM | COc1cc(C(=O)O)c(F)cc1NS(=O)(=O)c1cnc(-c2ccc(C3=CCC(C(F)(F)F)CC3)cc2)s1 (stereo not drawn) [Example 719] |
| 100 to 500 nM | COc1cc(C(=O)O)c(F)cc1NS(=O)(=O)c1cnc(-c2ccc([C@H]3CC[C@@H](C(C)(C)C)CC3)cc2)s1 [Example 720] |
| 100 to 500 nM | COc1cc(C(=O)O)c(F)cc1NS(=O)(=O)c1cnc(-c2ccc([C@H]3CC[C@H](C(C)(C)C)CC3)cc2)s1 [Example 721] |
| < 100 nM | CC[C@H]1CC[C@H](c2ccc(-c3nc(S(=O)(=O)Nc4cc(F)c(C(=O)O)cc4OC)cs3)cc2)CC1 [Example 723] |
| < 100 nM | COc1cc(C(=O)O)c(F)cc1NS(=O)(=O)c1cnc(-c2ccc([C@H]3CC[C@@H](C(F)(F)F)CC3)cc2)s1 [Example 724] |
| < 100 nM | COc1cc(C(=O)O)c(F)cc1NS(=O)(=O)c1cnc(-c2ccc([C@H]3CC[C@H](C(F)(F)F)CC3)cc2)s1 [Example 725] |
| 100 to 500 nM | COc1cc(C(=O)O)c(F)cc1NS(=O)(=O)c1cnc(-c2ccc(C3=CC=C(F)CC3)cc2)s1 [Example 726] |
| 100 to 500 nM | COc1cc(C(=O)O)c(F)cc1NS(=O)(=O)c1cnc(-c2ccc(C3=CCC(F)(F)CC3)cc2)s1 [Example 727] |
| 100 to 500 nM | COc1cc(C(=O)O)c(F)cc1NS(=O)(=O)c1cnc(-c2ccc([C@H]3CC[C@@H](C(C)C)CC3)cc2)s1 [Example 729] |
| < 100 nM | COc1cc(C(=O)O)c(F)cc1NS(=O)(=O)c1csc(-c2ccc([C@H]3CC[C@H](C(C)C)CC3)cc2)n1 [Example 730] |

The next lines start with the molecule.

| SMILES | IC50 |
| --- | --- |
| COc1cc(C(=O)O)c(F)cc1N(C)S(=O)(=O)c1csc(-c2ccc(C3CCC(C)(C)CC3)cc2C(F)(F)F)n1 [Example 683] | 100 to 500 nM |
| COc1cc(C(=O)O)c(F)cc1NS(=O)(=O)c1cnn(-c2ccc(C3CCC(C)(C)CC3)cc2)c1 [Example 684] | 100 to 500 nM |
| COc1cc(C(=O)O)c(F)cc1NS(=O)(=O)c1cnn(-c2ccc([C@H]3CC[C@@H](C(C)C)CC3)cc2)c1 [Example 687] | 100 to 500 nM |
| COc1cc(C(=O)O)c(F)cc1NS(=O)(=O)c1cnn(-c2ccc([C@H]3CC[C@H](C(C)C)CC3)cc2)c1 [Example 688] | 100 to 500 nM |
| COc1cc(C(=O)O)c(F)cc1NS(=O)(=O)c1ccn(-c2ccc(C3CCCCC3)cc2)n1 [Example 689] | 100 to 500 nM |
| COc1cc(C(=O)O)c(F)cc1NS(=O)(=O)c1ccn(-c2ccc(C3CCC(C)(C)CC3)cc2)n1 [Example 690] | 100 to 500 nM |
| COc1cc(C(=O)O)c(F)cc1NS(=O)(=O)c1ccn(-c2ccc([C@H]3CC[C@@H](C(C)C)CC3)cc2)n1 [Example 693] | 100 to 500 nM |
| COc1cc(C(=O)O)c(F)cc1NS(=O)(=O)c1ccn(-c2ccc([C@H]3CC[C@H](C(C)C)CC3)cc2)n1 [Example 694] | < 100 nM |
| COc1cc(C(=O)O)c(NC(C)=O)cc1NS(=O)(=O)c1csc(-c2ccc(C3CCC(C)(C)CC3)cc2C(F)(F)F)n1 [Example 695] | 1000 to 100000 nM |
| COc1cc(C(=O)O)c(Cl)cc1NS(=O)(=O)c1csc(-c2ccc(C3CCC(C)(C)CC3)cc2C(F)(F)F)n1 [Example 696] | 500 to 1000 nM |
| CN(C)c1cc(C(=O)O)ccc1NS(=O)(=O)c1csc(-c2ccc(C3CCC(C)(C)CC3)cc2C(F)(F)F)n1 [Example 697] | 1000 to 100000 nM |
| COc1cc(C(=O)O)c(C2=CCCC2)cc1NS(=O)(=O)c1csc(-c2ccc(C3CCC(C)(C)CC3)cc2C(F)(F)F)n1 [Example 698] | 1000 to 100000 nM |
| COc1cc(C(=O)O)c(C2CC2)cc1NS(=O)(=O)c1csc(-c2ccc(C3CCC(C)(C)CC3)cc2C(F)(F)F)n1 [Example 699] | 1000 to 100000 nM |
| COc1cc(C(=O)O)c(F)cc1NS(=O)(=O)c1ccc2nc(-c3ccc(C4CCC(C)(C)CC4)cc3)sc2c1 [Example 700] | 1000 to 100000 nM |
| COc1cc(C(=O)O)c(NS(C)(=O)=O)cc1NS(=O)(=O)c1csc(-c2ccc(C3CCC(C)(C)CC3)cc2C(F)(F)F)n1 [Example 701] | 1000 to 100000 nM |
| COc1cc(C(=O)O)c(C)cc1NS(=O)(=O)c1csc(-c2ccc(C3CCC(C)(C)CC3)cc2C(F)(F)F)n1 [Example 702] | 1000 to 100000 nM |
| COc1cc(C(=O)O)c(F)cc1NS(=O)(=O)c1ccc2sc(-c3ccc(C4CCCCC4)cc3C(F)(F)F)nc2c1 [Example 703] | 500 to 1000 nM |
| COc1cc(C(=O)O)c(F)cc1NS(=O)(=O)c1ccc2sc(-c3ccc(C4CCC(C)(C)CC4)cc3C(F)(F)F)nc2c1 [Example 704] | 100 to 500 nM |
| CNc1cc(C(=O)O)ccc1NS(=O)(=O)c1csc(-c2ccc(C3CCC(C)(C)CC3)cc2C(F)(F)F)n1 [Example 705] | 1000 to 100000 nM |
| CCCCC[C@H]1CC[C@H](c2ccc(-c3nc(S(=O)(=O)Nc4ccc(C(=O)O)cc4OC)cs3)c(F)c2)CC1 [Example 707] | 100 to 500 nM |
| COc1cc(C(=O)O)ccc1NS(=O)(=O)c1cnc(-c2ccc(C3=CC(C)(C)CC(C)(C)C3)cc2)s1 [Example 708] | 100 to 500 nM |

| SMILES | IC50 |
| --- | --- |
| CCC[C@H]1CC[C@H](C2CC=C(c3ccc(-c4ncc(S(=O)(=O)Nc5ccc(C(=O)O)cc5OC)s4)cc3)CC2)CC1 (stereo partly drawn) [Example 709] | 1000 to 100000 nM |
| COc1cc(C(=O)O)ccc1NS(=O)(=O)c1cnc(-c2ccc(-c3ccc(C(F)(F)F)c(C(F)(F)F)c3)cc2)s1 [Example 710] | 100 to 500 nM |
| COc1cc(C(=O)O)ccc1NS(=O)(=O)c1cnc(-c2ccc(C3=C[C@H]4CC[C@]3(C)C4(C)C)cc2)s1 [Example 711] | 100 to 500 nM |
| COc1cc(C(=O)O)ccc1NS(=O)(=O)c1cnc(-c2ccc(-c3ccc(C(F)(F)C(F)(F)F)cc3)cc2)s1 [Example 714] | 100 to 500 nM |
| COc1cc(C(=O)O)ccc1NS(=O)(=O)c1csc(-c2ccc(C3=CCC(C(F)(F)F)CC3)cc2)n1 (stereo not drawn) [Example 716] | < 100 nM |
| COc1cc(C(=O)O)ccc1NS(=O)(=O)c1cnc(-c2ccc(-c3ccc(C(F)(F)F)cc3)cc2)s1 [Example 718] | < 100 nM |
| COc1cc(C(=O)O)ccc1NS(=O)(=O)c1cnc(-c2ccc(C3=CC4CCC3C4)cc2)s1 (stereo not drawn) [Example 722] | 100 to 500 nM |
| COc1cc(C(=O)O)c(F)cc1NS(=O)(=O)c1cnc(-c2ccc(C3=CCC(C)(C)CC3)cc2)s1 [Example 728] | < 100 nM |
| COc1cc(C(=O)O)c(F)cc1NS(=O)(=O)c1csc(-c2ccc(-c3ccc(C45CC6C[C@H](C4)C[C@H](C6)C5)cc3)cc2)n1 [Example 731] | < 100 nM |
| COc1cc(C(=O)O)c(F)cc1NS(=O)(=O)c1csc(-c2ccc(C34CC5C[C@H](C3)C[C@H](C5)C4)cc2)n1 [Example 732] | 100 to 500 nM |
| CCC[C@H]1CC[C@H]([C@H]2CC[C@@H](c3nc(S(=O)(=O)Nc4cc(F)c(C(=O)O)cc4OC)cs3)CC2)CC1 [Example 733] | 100 to 500 nM |
| CCC[C@H]1CC[C@H]([C@H]2CC[C@H](c3nc(S(=O)(=O)Nc4cc(F)c(C(=O)O)cc4OC)cs3)CC2)CC1 [Example 734] | 100 to 500 nM |
| COc1cc(C(=O)O)c(F)cc1NS(=O)(=O)c1csc(-c2ccc(-c3ccc(C(F)(F)C(F)(F)F)cc3)cc2)n1 [Example 735] | 100 to 500 nM |
| COc1cc(C(=O)O)ccc1NS(=O)(=O)c1cnc(-c2ccc(C3=CCC4(CC3)CC4)cc2)s1 [Example 736] | 100 to 500 nM |
| COc1cc(C(=O)O)c(F)cc1NS(=O)(=O)c1csc(-c2ccc(-c3ccc(-c4ccc(C56CC7C[C@H](C5)C[C@H](C7)C6)cc4)cc3C(F)(F)F)cc2C(F)(F)F)n1 [Example 737] | 1000 to 100000 nM |
| COc1cc(C(=O)O)c(F)cc1NS(=O)(=O)c1csc(-c2ccc(-c3ccc(C45CC6C[C@H](C4)C[C@H](C6)C5)cc3)c(C(F)(F)F)c2)n1 [Example 738] | 100 to 500 nM |
| COc1cc(C(=O)O)c(F)cc1NS(=O)(=O)c1csc(-c2ccc(-c3ccc(C45CC6C[C@H](C4)C[C@H](C6)C5)cc3)c(F)c2F)n1 [Example 739] | 100 to 500 nM |
| COc1cc(C(=O)O)c(F)cc1NS(=O)(=O)c1csc(-c2ccc(-c3ccc(C(F)(F)F)cc3)cc2)n1 [Example 740] | < 100 nM |
| COc1cc(C(=O)O)c(F)cc1NS(=O)(=O)c1csc(-c2ccc(C3=CCC(C(C)C)CC3)cc2C(F)(F)F)n1 (stereo not drawn) [Example 741] | < 100 nM |
| COc1cc(C(=O)O)c(F)cc1NS(=O)(=O)c1csc(-c2ccc(-c3ccc(C4=CCC(C(C)C)CC4)cc3C(F)(F)F)cc2C(F)(F)F)n1 (stereo not drawn) [Example 742] | 100 to 500 nM |
